Drawing on ChEMBL document CHEMBL1121806, “Inhibition of the renin-angiotensin system. A new approach to the therapy of hypertension” (J Med Chem, 1981), this text covers Km and Ki for 14 molecules.

Usually Km stands for the substrate concentration at which the rate is half of its maximum. By Ki is commonly meant a measure of affinity in units of concentration, obtained from inhibition or displacement. Low readings indicate higher affinity, high ones lower affinity.

To fix the notation:
T1: Renin (Homo sapiens, UniProt P00797)
T1 sequence (P00797 whole entry): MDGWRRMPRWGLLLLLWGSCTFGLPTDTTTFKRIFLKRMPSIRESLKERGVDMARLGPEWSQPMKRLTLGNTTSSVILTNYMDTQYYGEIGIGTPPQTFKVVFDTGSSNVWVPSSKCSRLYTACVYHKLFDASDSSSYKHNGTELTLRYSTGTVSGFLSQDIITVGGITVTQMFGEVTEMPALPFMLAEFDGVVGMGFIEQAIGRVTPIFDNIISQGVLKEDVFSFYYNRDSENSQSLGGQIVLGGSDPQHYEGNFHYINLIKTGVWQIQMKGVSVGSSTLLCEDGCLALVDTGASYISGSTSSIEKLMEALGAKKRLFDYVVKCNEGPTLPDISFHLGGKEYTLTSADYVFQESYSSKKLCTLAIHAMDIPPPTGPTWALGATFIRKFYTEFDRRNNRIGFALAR

B1: Renin (Homo sapiens), P00797 (protein)
chain: T1 sequence (P00797 whole entry)

Starred links: 1 amine or outer side, 2 acyl side, 3 side chain; linkers in the order of their positions; H or OH if unused. Non-standard residues stand in square brackets, D forms with d. Residues, ends and D or L forms follow the SMILES beside them. ξ: configuration not given here. *: point of attachment. Sta(3ξ) = CC(C)C[C@H](N[*:1])C(O)CC(=O)[*:2]; Isovaleryl = CC(C)CC(=O)*

Substrate in one data set: CC[C@H](C)[C@H](NC(=O)[C@H](Cc1ccc(O)cc1)NC(=O)[C@@H](NC(=O)[C@H](CCCN=C(N)N)NC(=O)[C@@H](N)CC(=O)O)C(C)C)C(=O)N[C@@H](Cc1c[nH]cn1)C(=O)N1CCC[C@H]1C(=O)N[C@@H](Cc1ccccc1)C(=O)N[C@@H](Cc1c[nH]cn1)C(=O)N[C@@H](CC(C)C)C(=O)O
The experiment in a line: The compound was tested for its antihypertensive activity against human renin. It is filed as functional.
For the molecule B1, the Km is 50 µM.

The next data set has as its target T1, Renin. As to the kind of experiment: Antihypertensive activity against human renin.
Molecule `C[C@@H](NC(=O)[C@H](Cc1ccccc1)NP(=O)(O)Oc1ccccc1)C(=O)O` yielded a Ki of 2200 nM. For `C[C@H](CCC(=O)O)C(=O)N1CCC[C@H]1C(=O)O`, the Ki turned out to be 800 nM. Same read-out and setting: in the case of `C[C@H](CC(=O)O)C(=O)N1CCC[C@H]1C(=O)O` it was 2500 nM; in that of `C[C@H](CS)C(=O)N1CCC[C@H]1C(=O)O` [CAPTOPRIL], 1.7 nM; in that of `COC(=O)[C@H](CCCN=C(N)N)NC(=O)CC(O)[C@H](CC(C)C)NC(=O)[C@H](C)NC(=O)CC(O)[C@H](CC(C)C)NC(=O)[C@@H](NC(=O)[C@@H](NC(=O)CC(C)C)C(C)C)C(C)C` (some centres undefined) (Isovaleryl-VV[Sta(3ξ)]A[Sta(3ξ)]R-OMe), 300 nM. Still for that read-out and setting: in the case of `CC(C)CC(=O)N[C@H](C(=O)N[C@H](C(=O)N[C@@H](CC(C)C)C(O)CC(=O)N[C@@H](C)C(=O)N[C@@H](CC(C)C)C(O)CC(=O)N[C@@H](CCCN=C(N)N)C(=O)O)C(C)C)C(C)C` (some centres undefined) (Isovaleryl-VV[Sta(3ξ)]A[Sta(3ξ)]R-OH) it was 100 nM. Still for that read-out and setting: in the case of `C[C@H](NP(=O)(O)Oc1ccccc1)C(=O)N1CCC[C@H]1C(=O)O` it was 1 nM; in that of `CC(C)C[C@H](NC(=O)[C@H](Cc1cnc[nH]1)NC(=O)[C@H](Cc1ccccc1)NC(=O)[C@H]1CCCN1C(=O)[C@H](Cc1cnc[nH]1)NC(=O)[C@H]1CCCN1)C(=O)N[C@@H](Cc1ccccc1)C(=O)N[C@H](C(=O)N[C@@H](Cc1ccc(O)cc1)C(=O)O)C(C)C`, 4000 nM.

Consider `CC(C)[C@H](NC(=O)[C@H](Cc1ccccc1)NC(=O)[C@H](Cc1ccccc1)NC(=O)[C@H](Cc1c[nH]cn1)NC(=O)[C@H](Cc1ccccc1)NC(=O)[C@H]1CCCN1C(=O)[C@H](Cc1c[nH]cn1)NC(=O)[C@H]1CCCN1)C(=O)N[C@@H](Cc1ccc(O)cc1)C(=O)O`, for which the Ki was determined as 1000 nM. Molecule H-EWPRPQIPP-OH gave a Ki of 800 nM.

The molecule `C[C@H](CC(=O)NO)C(=O)N1CCC[C@H]1C(=O)O` registered an inhibition constant (Ki) of 600 nM. Turning to `CC(C)C[C@H](NC(=O)[C@H](Cc1cnc[nH]1)NC(=O)[C@H](Cc1ccccc1)NC(=O)[C@H]1CCCN1C(=O)[C@H](Cc1cnc[nH]1)NC(=O)[C@H]1CCCN1)C(=O)N[C@@H](CC(C)C)C(=O)N[C@H](C(=O)N[C@@H](Cc1ccc(O)cc1)C(=O)O)C(C)C`, affinity was put at a Ki of 42000 nM. Same read-out and setting: in the case of `C[C@H](NC(CCc1ccccc1)C(=O)O)C(=O)N1CCC[C@H]1C(=O)O` (some centres undefined) it was 1.2 nM.
